The structures appear in SMILES notation. Like-named read-outs stand apart in the source and are kept apart here.

One test deals with T1, ETA Receptor (Rattus norvegicus, UniProt P26684).
T1 construct: endogenous in cells; host or cells: MMQ rat pituitary cells (membranes)
T1 sequence (P26684 21-426): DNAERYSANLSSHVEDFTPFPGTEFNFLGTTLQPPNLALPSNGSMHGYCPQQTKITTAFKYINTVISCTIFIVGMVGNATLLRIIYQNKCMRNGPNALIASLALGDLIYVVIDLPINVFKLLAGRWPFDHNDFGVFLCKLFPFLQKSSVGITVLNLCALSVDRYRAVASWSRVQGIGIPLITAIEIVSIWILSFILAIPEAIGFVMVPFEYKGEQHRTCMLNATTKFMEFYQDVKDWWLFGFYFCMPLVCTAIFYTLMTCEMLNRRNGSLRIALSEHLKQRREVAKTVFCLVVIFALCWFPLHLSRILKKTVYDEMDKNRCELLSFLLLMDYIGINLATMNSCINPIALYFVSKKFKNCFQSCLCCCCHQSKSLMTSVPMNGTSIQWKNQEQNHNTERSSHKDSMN
In words: [125I]ET-1 binding to membranes from MMQ cells (ETA receptor binding assay, Table 4). Particulars: test compound at 1 μM; 0.1 nM [125I]ET-1, MMQ cell membranes, 4 hours at 25° C.

The subject of test [1] is ET-1-induced phosphatidylinositol hydrolysis in MMQ cells. The test can be described thus: Determination of ET-1-induced phosphatidylinositol (PI) hydrolysis in MMQ cells. In kind it is cell-based, rat. As to conditions: 1 nM ET-1 challenge, read-out: IC50 (inhibition of ET-induced increase in PI turnover). As for the experimental part:
MMQ cells (0.4×10^6 cells/mL) were labeled with 10 μCi/mL of [^3H]myo-inositol in RPMI for 16 hours. The cells were washed with PBS, then incubated with Buffer A containing protease inhibitors and 10 mM LiCl for 60 minutes. The cells were then incubated with test compounds for 5 minutes, and then challenged with 1 nM ET-1. ET-1 challenge was terminated by the addition of 1.5 mL of 1:2 (v/v) chloroform-methanol. Total inositol phosphates were extracted after adding chloroform and water to give final proportions of 1:1:0.9 (v/v/v) chloroform-methanol-water as described by Berridge (Biochem. J. 206 587–595 (1982)). The upper aqueous phase (1 mL) was retained and a small portion (100 μL) was counted. The rest of the aqueous sample was analyzed by batch chromatography using anion-exchange resin AG1-X8 (Bio-Rad). […] The results of the above study clearly indicate that the compounds act as functional ET antagonists.

Test [2] deals with T2, ETB receptors of porcine cerebellar tissues (pET-B) (Sus scrofa, UniProt P35463).
T2 construct: porcine cerebellar tissues (known to contain ETB receptors); from tissue; host or cells: porcine cerebellum (membranes)
T2 sequence (P35463 27-443): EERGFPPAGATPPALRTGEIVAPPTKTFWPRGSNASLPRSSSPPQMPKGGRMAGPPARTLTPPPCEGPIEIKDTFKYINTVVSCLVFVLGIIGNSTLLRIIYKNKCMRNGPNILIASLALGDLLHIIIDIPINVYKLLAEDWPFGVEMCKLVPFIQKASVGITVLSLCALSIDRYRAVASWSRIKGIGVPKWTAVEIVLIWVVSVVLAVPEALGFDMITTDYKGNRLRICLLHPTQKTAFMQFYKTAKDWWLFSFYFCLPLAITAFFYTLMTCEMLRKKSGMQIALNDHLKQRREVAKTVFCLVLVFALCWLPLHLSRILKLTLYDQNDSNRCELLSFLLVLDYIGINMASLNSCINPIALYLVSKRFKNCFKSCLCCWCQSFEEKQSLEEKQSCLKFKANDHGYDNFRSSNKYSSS
The test can be described thus: ETA/ETB selectivity: (125I)ET-3 competition binding, ETB assay in porcine cerebellum membranes (pET-B). As to conditions: porcine cerebellum membranes; 0.1 nM (125I)ET-3; read-out: pET-B IC50. As to the method: The mixture was centrifuged at 1000×g for 10 min. The supernatant was collected and centrifuged at 60,000×g for 60 min. The precipitate was resuspended in 20 mM Tris, pH 7.4 containing protease inhibitor and centrifuged again. The final membrane pellet was resuspended in 20 mM Tris, pH 7.4 containing protease inhibitors and stored at −80° C. until used. Protein content was determined by the Bio-Rad dye-binding protein assay.
Binding assays were performed in 96-well microtiter plates pretreated with 0.1% BSA. […] After incubation, unbound ligands were separated from bound ligands by a vacuum filtration method using glass-fiber filter strips in PHD cell harvesters (Cambridge Technology, Inc., MA), washing the filter strips three times with saline (1 mL). Nonspecific binding was determined in the presence of 1 μM ET-1. IC50 values are calculated using an average of at least two separate determinations.

Broadly, the IC50 is the point on the concentration scale where inhibition reaches its midpoint. As for `CCCNC(=O)CN1CC(c2ccc3c(c2)OCO3)C(C(=O)O)C1c1ccc(OC)cc1` (stereo not drawn) [Example 1D, trans,trans-2-(4-Methoxyphenyl)-4-(1,3-benzodioxol-5-yl)-1-(propylaminocarbonylmethyl)-pyrrolidine-3-carboxylic acid], the “% Inhibition of ETA at 1 μM” value on ETA Receptor amounted to 96.4%. For the same compound, in test [1], the IC50 was 25 nM.

In the case of `C=CCNC(=O)CN1CC(c2ccc3c(c2)OCO3)C(C(=O)O)C1c1ccc(OC)cc1` (stereo not drawn) [Example 14, trans,trans-2-(4-Methoxyphenyl)-4-(1,3-benzodioxol-5-yl)-1-(allylaminocarbonylmethyl)-pyrrolidine-3-carboxylic acid], on ETA Receptor, the “% Inhibition of ETA at 1 μM” value amounted to 86.6%. Besides, the IC50 in test [1] amounted to 17 nM.

For `CCCCNC(=O)CN1CC(c2ccc3c(c2)OCO3)C(C(=O)O)C1c1ccc(OC)cc1` (stereo not drawn) [Example 15, trans,trans-2-(4-Methoxyphenyl)-4-(1,3-benzodioxol-5-yl)-1-(n-butylaminocarbonylmethyl)-pyrrolidine-3-carboxylic acid], the “% Inhibition of ETA at 1 μM” value at ETA Receptor worked out at 84.8%. Further, the IC50 in test [1] was found to be 10 nM.

With `CCCN(C)C(=O)CN1CC(c2ccc3c(c2)OCO3)C(C(=O)O)C1c1ccc(OC)cc1` (stereo not drawn) [Example 16, trans,trans-2-(4-Methoxyphenyl)-4-(1,3-benzodioxol-5-yl)-1-(N-(n-propyl)-N-methylaminocarbonylmethyl)-pyrrolidine-3-carboxylic acid], the “% Inhibition of ETA at 1 μM” value on ETA Receptor stood at 96.0%. For the same compound, the IC50 in test [1] came out at 9 nM.

In the case of `COc1ccc(C2C(C(=O)O)C(c3ccc4c(c3)OCO4)CN2CC(=O)NCC(C)C)cc1` (stereo not drawn) [Example 18, trans,trans-2-(4-Methoxyphenyl)-4-(1,3-benzodioxol-5-yl)-1-(isobutylaminocarbonylmethyl)-pyrrolidine-3-carboxylic acid], at ETA Receptor, the “% Inhibition of ETA at 1 μM” value amounted to 97.3%. Further, the IC50 in test [1] is 9 nM.

In the case of `COc1ccc(C2C(C(=O)O)C(c3ccc4c(c3)OCO4)CN2CC(=O)NC2CCCC2)cc1` (stereo not drawn) [Example 19, trans,trans-2-(4-Methoxyphenyl)-4-(1,3-benzodioxol-5-yl)-1-(cyclopentylaminocarbonylmethyl)-pyrrolidine-3-carboxylic acid], the “% Inhibition of ETA at 1 μM” value on ETA Receptor stood at 90.3%. The IC50 in test [1] was determined as 24 nM.

In the case of `CCCCN(C)C(=O)CN1CC(c2ccc3c(c2)OCO3)C(C(=O)O)C1c1ccc(OC)cc1` (stereo not drawn) [Example 30, trans,trans-2-(4-Methoxyphenyl)-4-(1,3-benzodioxol-5-yl)-1-(N-methyl-N-butylaminocarbonylmethyl)-pyrrolidine-3-carboxylic acid], on ETA Receptor, the “% Inhibition of ETA at 1 μM” value amounted to 80.0%. Also, the IC50 in test [1] was determined as 1 nM.

On to `CCCCN(C)C(=O)CN1CC(c2ccc3c(c2)OCO3)C(C(=O)O)C1c1ccc(OC)cc1OCOC` (stereo not drawn) [Example 31B, trans,trans-2-(4-Methoxy-2-methoxymethoxyphenyl)-4-(1,3-benzodioxol-5-yl)-1-(N-methyl-N-butylaminocarbonylmethyl)-pyrrolidine-3-carboxylic acid], for which, at ETA Receptor, the “% Inhibition of ETA at 1 μM” value turned out to be 93.6%. Besides, in test [1], the IC50 was found to be 2 nM.

As to `COc1ccc(C2C(C(=O)O)C(c3ccc4c(c3)OCO4)CN2CC(=O)N(C)C2CCCCC2)cc1` (stereo not drawn) [Example 46, trans,trans-2-(4-Methoxyphenyl)-4-(1,3-benzodioxol-5-yl)-1-(N-methyl-N-cyclohexylaminocarbonylmethyl)-pyrrolidine-3-carboxylic acid], the “% Inhibition of ETA at 1 μM” value on ETA Receptor was determined as 90.4%. For the same compound, the IC50 in test [1] was 2 nM.

Regarding `CCCN(CCC)C(=O)CN1CC(c2ccc3c(c2)OCO3)C(C(=O)O)C1c1ccc(OC)cc1` (stereo not drawn) [Example 47, trans,trans-2-(4-Methoxyphenyl)-4-(1,3-benzodioxol-5-yl)-1-(N,N-di(n-propyl)aminocarbonylmethyl)-pyrrolidine-3-carboxylic acid], the “% Inhibition of ETA at 1 μM” value on ETA Receptor worked out at 95.1%. Also, the IC50 in test [1] is 0.5 nM.

As to `COc1ccc(C2C(C(=O)O)C(c3ccc4c(c3)OCO4)CN2CC(=O)N(C)CC(C)C)cc1` (stereo not drawn) [Example 48, trans,trans-2-(4-Methoxyphenyl)-4-(1,3-benzodioxol-5-yl)-1-(N-methyl-N-isobutylaminocarbonylmethyl)-pyrrolidine-3-carboxylic acid], the “% Inhibition of ETA at 1 μM” value at ETA Receptor is 96.3%. In test [1], the IC50 was determined as 0.4 nM.

For the compound `CCCCN(C(=O)CN1CC(c2ccc3c(c2)OCO3)C(C(=O)O)C1c1ccc(OC)cc1)c1ccccc1` (stereo not drawn) [Example 291, trans,trans-2-(4-Methoxyphenyl)-4-(1,3-benzodioxol-5-yl)-1-(N-butyl-N-phenylaminocarbonylmethyl)-pyrrolidine-3-carboxylic acid], the “% Inhibition of ETA at 1 μM” value on ETA Receptor stood at 100.0%. Moreover, the IC50 in test [1] was found to be 9.8 nM.

As to `CCCN(CCN1CC(c2ccc3c(c2)OCO3)C(C(=O)O)C1c1ccc(OC)cc1)S(=O)(=O)c1ccc(OC(F)(F)F)cc1` (stereo not drawn) [Example 300, trans,trans-2-(4-Methoxyphenyl)-4-(1,3-benzodioxol-5-yl)-1-(2-(N-propyl-N-(4-trifluoromethoxybenzenesulfonyl)amino)ethyl)-pyrrolidine-3-carboxylic acid], the “% Inhibition of ETA at 1 μM” value at ETA Receptor was found to be 96.1%. Moreover, the IC50 in test [1] came out at 1.2 nM.

For `CCCCCS(=O)(=O)N(CCC)CCN1C[C@H](c2ccc3c(c2)OCO3)[C@@H](C(=O)O)[C@@H]1c1ccc(OC)c(F)c1` [Example 534], the IC50 in test [1] (Rattus norvegicus) came to 50 nM; in test [2], 0.36 nM.

These data come from patent publication US7208517B1, “Endothelin antagonists” (Abbott Labortories, priority 1994, dated 2007).
